Laboratory results as given in publication PMC8424217 (The Journal of Biological Chemistry, 2021).
Peptide text beside a SMILES is read from it. * marks the point of attachment. Palmitoyl = CCCCCCCCCCCCCCCC(=O)*

Legend:
rat thoracic aorta rings = biological target: T1, rat thoracic aorta rings (Rattus norvegicus, UniProt P49684); assay: Rat aortic ring contraction (agonist); conditions: for contraction at 10 μM: n = 5; for contraction pEC50: n = 22 (hUII, URP), n = 5 (pepducins)
T1 sequence (P49684 1-386): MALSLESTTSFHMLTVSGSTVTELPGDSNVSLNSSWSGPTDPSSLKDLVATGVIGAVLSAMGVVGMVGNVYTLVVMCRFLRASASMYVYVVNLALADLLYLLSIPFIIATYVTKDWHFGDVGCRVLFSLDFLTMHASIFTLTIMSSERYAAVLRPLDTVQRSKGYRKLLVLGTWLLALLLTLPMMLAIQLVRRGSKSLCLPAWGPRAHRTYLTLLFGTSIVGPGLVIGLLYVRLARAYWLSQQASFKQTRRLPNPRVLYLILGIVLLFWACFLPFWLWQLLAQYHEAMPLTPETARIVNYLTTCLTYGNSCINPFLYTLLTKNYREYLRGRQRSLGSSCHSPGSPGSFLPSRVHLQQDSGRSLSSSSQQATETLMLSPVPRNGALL
Description: Each replicate (n) was conducted on tissue obtained from at least three different animals. Data represent mean ± SEM.
Adult male Sprague-Dawley rats (Charles-River) weighing 250–300 g were housed in cages under controlled illumination (12:12 h light–dark cycle), humidity, and temperature (21–23 °C) and had free access to tap water and rat chow. All experimental procedures were performed in accordance with regulations and ethical guidelines from the Canadian Council for the Care of Laboratory Animals and received approvals of the institutional animal care and use committee of the Institut National de la Recherche Scientifique—Centre Armand-Frappier Santé Biotechnologie. As previously described ([17], [18]), the thoracic aorta was cleared of surrounding tissue and then excised from the aortic arch to the diaphragm. Conjunctive tissues were next removed from the thoracic aorta and the vessels were divided into five rings of 4 mm. The endothelium of each aortic ring was removed by gently rubbing the vessel intimal surface. Aortic rings were then placed in a 5 ml organ bath filled with oxygenated normal Krebs–Henseleit buffer. Eighty microliters of a 2.5 M potassium chloride solution (40 mM final concentration) was used to evaluate maximal contractile responses of each vessel. […] Cumulative concentration–response curves to synthetic peptides were obtained by increasing the concentration of each peptide in the remaining organ chambers (10^−11–10^−5 M).

hUT = biological target: T2, hUT (Homo sapiens, UniProt Q9UKP6); assay: ERK1/2 phosphorylation, western blot, CHO-hUT cells; assay type: cell-based; parameters: expressed in transfected cells; host or cells: CHO-K1 cells stably expressing hUT (gift from H. Vaudry and C. Dubessy, University of Rouen); conditions: for EC50 / effect of AG1478 (EGFR inhibitor) on ERK1/2 phosphorylation induced by the peptide / effect of PTX on ERK1/2 phosphorylation induced by the peptide / effect of U73122 (PLC inhibitor) on ERK1/2 phosphorylation induced by the peptide / time of second peak of ERK1/2 phosphorylation / time of maximal ERK1/2 phosphorylation: CHO-hUT; for EC50: 5 min stimulation, mean ± SEM of at least three independent experiments in triplicate, read-out: ERK1/2 phosphorylation pEC50 (converted); for effect of AG1478 (EGFR inhibitor) on ERK1/2 phosphorylation induced by the peptide: AG1478 5 μM 30 min pretreatment; for effect of AG1478 (EGFR inhibitor) on ERK1/2 phosphorylation induced by the peptide / effect of PTX on ERK1/2 phosphorylation induced by the peptide / effect of U73122 (PLC inhibitor) on ERK1/2 phosphorylation induced by the peptide: pepducin 10^−6 M, 5 min, n = 3; for effect of PTX on ERK1/2 phosphorylation induced by the peptide: PTX 200 ng/ml 24 h pretreatment; for effect of U73122 (PLC inhibitor) on ERK1/2 phosphorylation induced by the peptide: U73122 1 μM 60 min pretreatment; for time of second peak of ERK1/2 phosphorylation / time of maximal ERK1/2 phosphorylation: pepducins 10^−6 M; for time of maximal ERK1/2 phosphorylation: hUII 10^−7 M
T2 sequence (Q9UKP6 1-389): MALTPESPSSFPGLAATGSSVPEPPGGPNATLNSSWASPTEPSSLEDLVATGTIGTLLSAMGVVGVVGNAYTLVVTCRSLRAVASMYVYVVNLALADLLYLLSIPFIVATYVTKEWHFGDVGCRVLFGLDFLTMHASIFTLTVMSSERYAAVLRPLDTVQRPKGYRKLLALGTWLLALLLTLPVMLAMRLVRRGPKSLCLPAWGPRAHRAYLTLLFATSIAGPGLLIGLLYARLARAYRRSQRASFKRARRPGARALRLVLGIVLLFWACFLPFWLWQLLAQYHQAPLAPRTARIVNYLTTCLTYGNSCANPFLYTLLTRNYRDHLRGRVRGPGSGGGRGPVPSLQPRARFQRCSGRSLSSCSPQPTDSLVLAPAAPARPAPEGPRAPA
Description: Figure 3 IP1production (A and B) and ERK1/2phosphorylation (C and D) kinetics and concentration dependence following hUT activation. IP1 production was evaluated using the IP-One terbium immunoassay kits while ERK1/2 phosphorylation was measured by western blot in CHO-K1 cells stably expressing hUT. […] Each curve represents the mean ± SEM of at least three independent experiments performed in triplicate.
ERK1/2 phosphorylation was measured by western blot. […] Quantification of ERK1/2 phosphorylation level was performed in three independent experiments done in triplicate (mean ± SEM, n = 3, ∗∗∗p < 0.001, ∗∗p < 0.01, or ∗p < 0.05, versus control).
CHO cells stably expressing hUT (CHO-hUT; gift from Drs H. Vaudry et C. Dubessy, University of Rouen, France) were grown in 12-well plates to 70–80% confluence and starved for 6 h in a serum-free medium. […] Briefly, HEK 293-hUT cells, grown in 12-well plates to 70–80% confluence, were starved for 6 h in a serum-free medium. […] Cells were then rinsed twice with ice-cold PBS and homogenized in 0.5 ml of lysis buffer (20 mM Tris, 150 mM NaCl, 1 mM EDTA, 1 mM EGTA, 1% Triton X-100, 2.5 mM sodium pyrophosphate, 1 mM β-glycerolphosphate, 1 mM Na3VO4, 1 μg mL^−1 leupeptin, 1 mM PMSF, 1 mM DTT) at 4 °C. Insoluble material was removed by centrifugation at 12,000 rpm for 30 min. The extract was treated with Laemmli sample buffer and heated for 5 min at 95 °C. Aliquots were assayed for protein concentration (BioRad) and an equal amount of total protein was subjected to 12% SDS–PAGE, followed by transfer to a nitrocellulose membrane. The membrane was blocked and then probed with primary antibody (phospho-p44/42 MAPK) at the optimal dilution (1/2000) with gentle agitation overnight at 4 °C. After washing with TTBS, membranes were then incubated with secondary antibody, conjugated with horseradish peroxidase (anti-rabbit HRP) diluted in TBST containing 5% skim milk (w/v) for 1 h at room temperature. Immunoreactive species were visualized by enhanced chemiluminescence using X-ray film and Thermo Scientific SuperSignal chemiluminescent substrates according to the manufacturer's instructions. Films were digitized and the intensity of the immunoreactive bands determined using Quantity One software from Bio-Rad.

[1] = percentage of contraction induced by 40 mM KCl

SMILES	contraction at 10 μM (rat thoracic aorta rings; [1])	contraction pEC50 (rat thoracic aorta rings; mean ± SEM)	Emax (hUT)	EC50 (hUT)	effect of AG1478 (EGFR inhibitor) on ERK1/2 phosphorylation induced by the peptide (hUT)	effect of PTX on ERK1/2 phosphorylation induced by the peptide (hUT)	effect of U73122 (PLC inhibitor) on ERK1/2 phosphorylation induced by the peptide (hUT)	time of second peak of ERK1/2 phosphorylation (hUT)	time of maximal ERK1/2 phosphorylation (hUT)	Emax (rat thoracic aorta rings; percentage of contraction induced by 40 mM KCl, mean ± SEM, n = 22)
CCCCCCCCCCCCCCCC(=O)N[C@@H](Cc1c[nH]c2ccccc12)C(=O)N[C@@H](CC(C)C)C(=O)N[C@@H](CO)C(=O)N[C@@H](CCC(N)=O)C(=O)N[C@@H](CCCNC(=N)N)C(=O)N[C@@H](C)C(=O)N[C@@H](CO)C(=O)N[C@@H](Cc1ccccc1)C(=O)N[C@@H](CCCCN)C(=O)N[C@@H](CCCNC(=N)N)C(=O)N[C@@H](C)C(=O)N[C@@H](CCCNC(=N)N)C(=O)N[C@@H](CCCNC(=N)N)C(N)=O [[Trp^1, Leu^2]hUT-Pep3] (Palmitoyl-WLSQRASFKRARR-NH2)	16% @ 10 μM	<5	56 ± 2%	200 nM	significantly reduced the ability of both hUT-derived pepducins to induce ERK1/2 phosphorylation	completely prevented	completely prevented	60 min	5 min	
CC(C)[C@H](NC(=O)[C@@H]1CSSC[C@H](NC(=O)[C@H](CC(=O)O)NC(=O)[C@@H]2CCCN2C(=O)[C@@H](NC(=O)[C@@H](N)CCC(=O)O)[C@@H](C)O)C(=O)N[C@@H](Cc2ccccc2)C(=O)N[C@@H](Cc2c[nH]c3ccccc23)C(=O)N[C@@H](CCCCN)C(=O)N[C@@H](Cc2ccc(O)cc2)C(=O)N1)C(=O)O [hUII, urotensin II, reference compound]		8.64 ± 0.09	102 ± 2%			substantially reduced, or even suppressed			5 min	102 ± 3%
CCCCCCCCCCCCCCCC(=O)N[C@@H](CCCNC(=N)N)C(=O)N1CCC[C@H]1C(=O)N[C@@H](CC(C)C)C(=O)N[C@@H](CC(=O)O)C(=O)N[C@H](C(=O)N[C@H](C(=O)N[C@@H](CCC(N)=O)C(=O)N[C@@H](CCCNC(=N)N)C(=O)N1CCC[C@H]1C(=O)N[C@@H](CCCCN)C(=O)NCC(=O)N[C@@H](Cc1ccc(O)cc1)C(N)=O)C(C)C)[C@@H](C)O [hUT-Pep2] (Palmitoyl-RPLDTVQRPKGY-NH2)	7% @ 10 μM	<5	34 ± 2%	55 nM	significantly reduced the ability of both hUT-derived pepducins to induce ERK1/2 phosphorylation	unaffected by PTX treatment	only partially affected by the PLC inhibitor	a similar pattern was not observed for hUT-Pep2	5 min	
